Data taken from EP0019589A1, “Tripeptide derivatives and their use in a process for determining enzymes” (Pentapharm A.G., priority 1979, dated 1980).
Non-standard residues stand in square brackets, D forms with d. Residues, ends and D or L forms follow the SMILES beside them. *: point of attachment. Cha = N[C@@H](CC1CCCCC1)C(=O)O; dCha = N[C@H](CC1CCCCC1)C(=O)O; dChg = N[C@@H](C(=O)O)C1CCCCC1; dPhg = N[C@@H](C(=O)O)c1ccccc1; pNA = O=[N+]([O-])c1ccc(N*)cc1; Chg = N[C@H](C(=O)O)C1CCCCC1; Phg = N[C@H](C(=O)O)c1ccccc1; Pip = O=C(O)[C@@H]1CCCCN1; dNva = CCC[C@@H](N)C(=O)O; dPip = O=C(O)[C@H]1CCCCN1; Nle = CCCC[C@H](N)C(=O)O; dAbu = CC[C@@H](N)C(=O)O; Nva = CCC[C@H](N)C(=O)O

Key:
Format in all cases: biochemical
Humanplasmin = biological target: T1, Humanplasmin (Homo sapiens, UniProt P00747); assay: Cleavage of chromogenic substrate by human plasmin; conditions: 1 CU-Einheit human plasmin, per min; Substratkonzentration 2 x 10^-4 molar
T1 construct: da bei der Aktivierung aus 1 Molekül Plasminogen 1 Molekül Plasmin entsteht
T1 sequence (P00747 581-810 limits assumed): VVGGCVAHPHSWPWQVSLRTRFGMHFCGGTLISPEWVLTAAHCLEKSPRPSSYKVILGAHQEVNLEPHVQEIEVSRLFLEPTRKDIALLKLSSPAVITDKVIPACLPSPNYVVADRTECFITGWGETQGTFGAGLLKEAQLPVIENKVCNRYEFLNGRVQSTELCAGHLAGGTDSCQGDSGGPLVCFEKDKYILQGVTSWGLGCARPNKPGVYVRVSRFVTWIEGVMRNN
T1 sequence (P00747 97-580 partner limits assumed): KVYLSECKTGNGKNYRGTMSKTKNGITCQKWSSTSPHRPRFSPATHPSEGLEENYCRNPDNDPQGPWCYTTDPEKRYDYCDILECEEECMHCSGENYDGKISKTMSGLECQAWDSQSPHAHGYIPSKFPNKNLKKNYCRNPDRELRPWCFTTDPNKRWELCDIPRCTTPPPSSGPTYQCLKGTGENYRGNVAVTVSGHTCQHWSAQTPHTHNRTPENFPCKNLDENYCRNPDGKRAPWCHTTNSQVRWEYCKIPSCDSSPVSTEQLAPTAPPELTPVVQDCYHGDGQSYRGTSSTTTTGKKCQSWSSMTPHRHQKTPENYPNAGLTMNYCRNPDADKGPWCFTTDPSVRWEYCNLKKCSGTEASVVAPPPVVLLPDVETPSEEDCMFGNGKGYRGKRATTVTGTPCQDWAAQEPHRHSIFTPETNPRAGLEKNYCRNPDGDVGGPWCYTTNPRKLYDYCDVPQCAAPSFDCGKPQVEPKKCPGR

Urinkallikrein = biological target: T2, Urinkallikrein (Homo sapiens, UniProt P06870); assay: Cleavage of chromogenic substrate by urinary kallikrein in human urine; conditions: 1 ml human urine (pooled morning urine of healthy persons), per min; Substratkonzentration 2 x 10^-4 molar
T2 construct: 1 ml Urin und 1 ml TRIS-Imidazol-Puffer mit pH 7,9; from tissue; host or cells: human urine
T2 sequence (P06870 25-262): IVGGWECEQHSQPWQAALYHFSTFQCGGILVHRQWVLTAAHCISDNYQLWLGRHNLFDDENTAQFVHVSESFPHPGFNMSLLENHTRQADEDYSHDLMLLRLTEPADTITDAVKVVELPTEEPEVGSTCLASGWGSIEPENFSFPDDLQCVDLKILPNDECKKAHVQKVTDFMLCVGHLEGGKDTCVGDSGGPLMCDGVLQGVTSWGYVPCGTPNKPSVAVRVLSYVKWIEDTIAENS

Humanthrombin = biological target: T3, Humanthrombin (Homo sapiens, UniProt P00734); assay: Cleavage of chromogenic substrate by human NIH thrombin; conditions: 1 NIH-Einheit human thrombin, per min; Substratkonzentration 2 x 10^-4 molar
T3 construct: Humanplasmin und hu-manem NIH-Thrombin
Method in brief: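 Thrombin hydrolysis of chromogenic p-nitroanilide substrate read spectrophotometrically at 405 nm; fluorogenic naphthylamine, methylcoumarylamine or di(methoxycarbonyl)phenylamine substrates read continuously by fluorescence emission at 400-470 nm. Activity taken as product formed per unit time; 1 µmol product/min defined as 1 enzyme unit for a given substrate.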

[1] = biological target: T4, Submandibularis-Kallikrein (Homo sapiens, UniProt P06870); assay: Cleavage of chromogenic substrate by submandibular (glandular) kallikrein in human sputum; conditions: 1 ml human sputum, per min; Substratkonzentration 2 x 10^-4 molar
T4 construct: Man mischt 0,5 ml Sputum mit 2 ml TRIS-Imidazol-Puffer; from tissue; host or cells: human sputum
T4 sequence (P06870 25-262): as above
Method in brief: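 Sputum mixed with TRIS-imidazole buffer (ionic strength 1.0), preincubated 5 min at 37°C and centrifuged; supernatant incubated with aqueous substrate solution (2 x 10^-3 M, stock). p-Nitroaniline release followed continuously at 405 nm for 5-10 min; activity expressed as mU per ml sputum from ΔOD/min.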

Structure (SMILES) | Menge des durch 1 CU-Einheit Humanplasmin pro Min. freigesetzten Spaltproduktes R-NH2 in Nanomol (Humanplasmin) (Humanplasmin) [Nanomol] | Menge des durch 1 ml Humanurin pro Min. freigesetzten Spaltproduktes R-NH2 in Nanomol (Urinkallikrein) (Urinkallikrein) | Menge des durch 1 NIH-Einheit Thrombin pro Min. freigesetzten Spaltproduktes R-NH2 in Nanomol (Humanthrombin) (Humanthrombin) | Menge des durch 1 ml Humansputum pro Min. freigesetzten Spaltproduktes R-NH2 in Nanomol (Submandibularis-Kallikrein) [1]
N=C(N)NCCC[C@H](NC(=O)[C@@H](NC(=O)[C@H](N)C1CCCCC1)c1ccccc1)C(=O)Nc1ccc([N+](=O)[O-])cc1 [Beispiel 58, 2HBr.H-D-CHG-Ph'Gly-Arg-pNA] (H-[dChg]-[Phg]-Arg-pNA) | 446 | 0,38 Nanomol | 63,7 Nanomol | 22,1 Nanomol
N=C(N)NCCC[C@H](NC(=O)[C@@H](NC(=O)[C@H](N)C1CCCCC1)C1CCCCC1)C(=O)Nc1ccc([N+](=O)[O-])cc1 [Beispiel 59, 2HBr.H-D-CHG-CHG-Arg-pNA] (H-[dChg]-[Chg]-Arg-pNA) | 101 | 0,33 Nanomol | 7,5 Nanomol | 5,9 Nanomol
N=C(N)NCCC[C@H](NC(=O)[C@@H](NC(=O)[C@H]1CCCCN1)C1CCCCC1)C(=O)Nc1ccc([N+](=O)[O-])cc1 [Beispiel 60, 2HBr.H-D-Pip-CHG-Arg-pNA] (H-[dPip]-[Chg]-Arg-pNA) | 10 | 0 Nanomol | 1,3 Nanomol | 1,4 Nanomol
N=C(N)NCCC[C@H](NC(=O)[C@@H](NC(=O)[C@H](N)Cc1ccccc1)C1CCCCC1)C(=O)Nc1ccc([N+](=O)[O-])cc1 [Beispiel 61, 2HBr.H-D-Phe-CHG-Arg-pNA] (H-[dF]-[Chg]-Arg-pNA) | 60 | 0,33 Nanomol | 3,7 Nanomol | 4,9 Nanomol
N=C(N)NCCC[C@H](NC(=O)[C@@H](NC(=O)[C@H](N)c1ccccc1)C1CCCCC1)C(=O)Nc1ccc([N+](=O)[O-])cc1 [Beispiel 62, 2HBr.H-D-Ph'Gly-CHG-Arg-pNA] (H-[dPhg]-[Chg]-Arg-pNA) | 26 | 0,25 Nanomol | 2,4 Nanomol | 7,2 Nanomol
N=C(N)NCCC[C@H](NC(=O)[C@H](Cc1ccccc1)NC(=O)[C@H](N)c1ccccc1)C(=O)Nc1ccc([N+](=O)[O-])cc1 [Beispiel 63, 2HBr.H-D-Ph'Gly-Phe-Arg-pNA] (H-[dPhg]-Phe-Arg-pNA) | 841 | 0,42 Nanomol | 2,4 Nanomol | 7,0 Nanomol
N=C(N)NCCC[C@H](NC(=O)[C@H](Cc1ccccc1)NC(=O)[C@H](N)CC1CCCCC1)C(=O)Nc1ccc([N+](=O)[O-])cc1 [Beispiel 64, 2HBr.H-D-CHA-Phe-Arg-pNA] (H-[dCha]-Phe-Arg-pNA) | 1261 | 0,5 Nanomol | 25,8 Nanomol | 9,7 Nanomol
N=C(N)NCCC[C@H](NC(=O)[C@@H]1CCCCN1C(=O)[C@H](N)C1CCCCC1)C(=O)Nc1ccc([N+](=O)[O-])cc1 [Beispiel 65, 2HBr.H-D-CHG-Pip-Arg-pNA] (H-[dChg]-[Pip]-Arg-pNA) | 259 | 1,92 Nanomol | 142,5 Nanomol | 14,2 Nanomol
N=C(N)NCCC[C@H](NC(=O)[C@@H]1CCCCN1C(=O)[C@H](N)CC1CCCCC1)C(=O)Nc1ccc([N+](=O)[O-])cc1 [Beispiel 66, 2HBr.H-D-CHA-Pip-Arg-pNA] (H-[dCha]-[Pip]-Arg-pNA) | 228 | 0,53 Nanomol | 114,2 Nanomol | 9,8 Nanomol
CCCC[C@H](NC(=O)[C@H](N)C1CCCCC1)C(=O)N[C@@H](CCCNC(=N)N)C(=O)Nc1ccc([N+](=O)[O-])cc1 [Beispiel 67, 2HBr.H-D-CHG-Nleu-Arg-pNA] (H-[dChg]-[Nle]-Arg-pNA) | 739 | 0,53 Nanomol | 41,0 Nanomol | 13,5 Nanomol
CCCC[C@H](NC(=O)[C@H](N)CC1CCCCC1)C(=O)N[C@@H](CCCNC(=N)N)C(=O)Nc1ccc([N+](=O)[O-])cc1 [Beispiel 68, 2HBr.H-D-CHA-Nleu-Arg-pNA] (H-[dCha]-[Nle]-Arg-pNA) | 899 | 0,45 Nanomol | 77,6 Nanomol | 15,0 Nanomol
CCC[C@H](NC(=O)[C@H](N)CC1CCCCC1)C(=O)N[C@@H](CCCNC(=N)N)C(=O)Nc1ccc([N+](=O)[O-])cc1 [Beispiel 69, 2HBr.H-D-CHA-Nval-Arg-pNA] (H-[dCha]-[Nva]-Arg-pNA) | 574 | 0,35 Nanomol | 97,1 Nanomol | 14,2 Nanomol
CCC[C@H](NC(=O)[C@H](N)C1CCCCC1)C(=O)N[C@@H](CCCNC(=N)N)C(=O)Nc1ccc([N+](=O)[O-])cc1 [Beispiel 70, 2HBr.H-D-CHG-Nval-Arg-pNA] (H-[dChg]-[Nva]-Arg-pNA) | 488 | 0,38 Nanomol | 67,4 Nanomol | 24,2 Nanomol
CCC[C@@H](N)C(=O)N[C@@H](CC1CCCCC1)C(=O)N[C@@H](CCCCN)C(=O)Nc1ccc([N+](=O)[O-])cc1 [Beispiel 71, 2HBr.H-D-Nval-CHA-Lys-pNA] (H-[dNva]-[Cha]-Lys-pNA) | 655 | 1,87 Nanomol | 6,9 Nanomol | 18,04 Nanomol
CC[C@@H](N)C(=O)N[C@@H](CC1CCCCC1)C(=O)N[C@@H](CCCCN)C(=O)Nc1ccc([N+](=O)[O-])cc1 [Beispiel 72, 2HBr.H-D-But-CHA-Lys-pNA] (H-[dAbu]-[Cha]-Lys-pNA) | 532 | 2,22 Nanomol | 3,6 Nanomol | 21,0 Nanomol
